Data reported in patent publication US5679640A, “Immunosuppressant peptides” (priority 1995, dated 1997).
Non-standard residues stand in square brackets, D forms with d. Residues, ends and D or L forms follow the SMILES beside them. Hyp = O=C(O)[C@@H]1C[C@@H](O)CN1; Cha = N[C@@H](CC1CCCCC1)C(=O)O

How the values were obtained:
DR4w14 = test: DR-peptide binding assay, DR4w14; parameters: species or system human; settings: Table 3, […]
Method: DR-peptide binding assay. Purified DR molecules (10-1,000 nM) were incubated with 10 nM ^125 I-radiolabeled peptide for 48 hours in the presence of added protease inhibitors. […] The final concentrations of protease inhibitors were: 1 mM PMSF, 1.3 mM 1,10-phenanthroline, 73 μM pepstatin A, 8 mM EDTA, 6 mM N-ethyl maleimide, and 200 μM Nα-p-tosyl-L-lysine chloromethyl ketone (TLCK). The final detergent concentration in the incubation mixture was 0.05% NP-40. Several of the peptides screened were hydrophobic and required DMSO to maintain solubility and reduce peptide adsorption to surfaces. In these instances peptide stock solutions were prepared in neat DMSO, and the final DMSO concentration in the incubation mixture was adjusted to 5%. […] The DR-peptide complexes were separated from free peptide by gel filtration on a Sephadex G50 (Pharmacia Fine Chemicals, Piscataway, N.J.) column (23×1.3 cm), as previously described. […] The columns were eluted using PBS (0.5% NP-40, 0.1% NAN3) collected in 1 ml fractions, which were then assayed for radioactivity. The fraction of peptide bound to DR (α) relative to the total amount of offered peptide was determined as the ratio of peptide in the void volume to the total peptide recovered. The α was corrected by subtracting the negative control (^125 I-peptide incubated for two days at room temperature in the presence of protease inhibitors and 120 μg/ml of unlabeled peptide, but in the absence of any DR).
To obtain a figure that positively correlated with the binding affinity, the data were expressed as relative binding values.

DR4w4 = target: T1, DR4w4 (Homo sapiens, UniProt P01903+P01911, A100K/A169T/F76Y/I96L/K127E/L162R/M171V/N62H/P40V/Q125Y/R42H/S133A/S149N/S66Y/V115G/V209L/W38E); test: DR-peptide binding assay, DR4w4; settings: Table 3, binding affinity relative to HA 307-319 = 1
T1 construct: EBV-transformed homozygous cell lines were used as a source of DR molecules; endogenous in cells; host or cells: Preiss or Beh (EBV-transformed human B cell lines, DR4 Dw4 homozygous); lysate purified on a monoclonal antibody LB3.1 column

HLA-DR1 = target: T2, HLA-DR1 (Homo sapiens, UniProt P01903+P01911, A100R/D57E/F55L/F60I/F76Y/I96L/L162R/M171V/P40L/Q125E/R42F/V115G/Y59C); test: DR-peptide binding assay, DR1; settings: Table 3, binding affinity relative to HA 307-319 = 1
T2 construct: EBV-transformed homozygous cell lines were used as a source of DR molecules; endogenous in cells; host or cells: LG-2 (EBV-transformed human B cell line, DR1 homozygous); lysate purified on a monoclonal antibody LB3.1 column

| SMILES | MHC Binding Assay DR4w14 (DR4w14) | MHC Binding Assay DR4w4 (DR4w4) | MHC Binding Assay DR1 (HLA-DR1) |
| --- | --- | --- | --- |
| C[C@H](NC(=O)[C@H](N)Cc1ccc(O)cc1)C(=O)N[C@@H](C)C(=O)N[C@@H](Cc1ccccc1)C(=O)N[C@@H](C)C(=O)N[C@@H](C)C(=O)N[C@@H](C)C(=O)N[C@@H](C)C(=O)N[C@H](C(=O)N[C@@H](C)C(=O)N[C@@H](CCCCN)C(=O)N[C@@H](C)C(=O)N[C@@H](C)C(=O)N[C@H](C)C(N)=O)[C@@H](C)O (H-[dY]AAFAAAATAKAA[dA]-NH2) | ++ (affinity greater than 1.0) | ++ (affinity greater than 1.0) | ++ (affinity greater than 1.0) |
| CC(C)C[C@H](NC(=O)[C@@H](NC(=O)[C@H](C)NC(=O)[C@H](C)NC(=O)[C@H](C)NC(=O)[C@H](C)NC(=O)[C@H](Cc1ccccc1)NC(=O)[C@H](C)NC(=O)[C@H](C)NC(=O)[C@H](N)Cc1ccc(O)cc1)[C@@H](C)O)C(=O)N[C@@H](CCCCN)C(=O)N[C@@H](C)C(=O)N[C@@H](C)C(=O)N[C@H](C)C(N)=O (H-[dY]AAFAAAATLKAA[dA]-NH2) | ++ (affinity greater than 1.0) | ++ (affinity greater than 1.0) | ++ (affinity greater than 1.0) |
| CC(C)C[C@H](NC(=O)[C@@H](NC(=O)[C@H](CCCCN)NC(=O)[C@H](C)NC(=O)[C@H](C)NC(=O)[C@H](C)NC(=O)[C@H](Cc1ccccc1)NC(=O)[C@H](C)NC(=O)[C@H](C)NC(=O)[C@H](N)Cc1ccc(O)cc1)[C@@H](C)O)C(=O)N[C@@H](C)C(=O)N[C@@H](C)C(=O)N[C@@H](C)C(=O)N[C@H](C)C(N)=O (H-[dY]AAFAAAKTLAAA[dA]-NH2) | ++ (affinity greater than 1.0) | ++ (affinity greater than 1.0) | ++ (affinity greater than 1.0) |
| CC(C)C[C@H](NC(=O)[C@@H](NC(=O)[C@@H](NC(=O)[C@H](CCC(N)=O)NC(=O)[C@H](CCCNC(=N)N)NC(=O)[C@H](CCC(N)=O)NC(=O)[C@H](Cc1ccccc1)NC(=O)[C@H](C)NC(=O)[C@H](C)NC(=O)[C@H](N)Cc1ccc(O)cc1)[C@@H](C)O)[C@@H](C)O)C(=O)N[C@@H](CCCCN)C(=O)N[C@@H](C)C(=O)N[C@@H](C)C(=O)N[C@H](C)C(N)=O (H-[dY]AAFQRQTTLKAA[dA]-NH2) | ++ (affinity greater than 1.0) | ++ (affinity greater than 1.0) | ++ (affinity greater than 1.0) |
| CC(C)C[C@H](NC(=O)[C@@H](NC(=O)[C@@H](NC(=O)[C@H](CCC(N)=O)NC(=O)[C@H](CCCNC(=N)N)NC(=O)[C@H](CCC(N)=O)NC(=O)[C@H](Cc1ccccc1)NC(=O)[C@H](C)NC(=O)[C@H](C)NC(=O)[C@H](N)Cc1ccc(O)cc1)[C@@H](C)O)[C@@H](C)O)C(=O)N[C@@H](CCCCN)C(=O)N[C@@H](C)C(=O)N[C@@H](C)C(=O)N[C@H](C)C(=O)O (H-[dY]AAFQRQTTLKAA[dA]-OH) | ++ (affinity greater than 1.0) | ++ (affinity greater than 1.0) | ++ (affinity greater than 1.0) |
| CC(=O)N[C@H](C)C(=O)N[C@@H](C)C(=O)N[C@@H](CC1CCCCC1)C(=O)N[C@@H](C)C(=O)N[C@@H](C)C(=O)N[C@@H](C)C(=O)N[C@@H](C)C(=O)N[C@H](C(=O)N[C@@H](CC(C)C)C(=O)N[C@@H](CCCCN)C(=O)N[C@@H](C)C(=O)N[C@@H](C)C(=O)N[C@H](C)C(N)=O)[C@@H](C)O [Ac-aAXAAAATLKAAa-NH2] | ++ (affinity greater than 1.0) | ++ (affinity greater than 1.0) | ++ (affinity greater than 1.0) |
| CC(=O)N[C@H](C)C(=O)N[C@@H](C)C(=O)N[C@@H](CC1CCCCC1)C(=O)N[C@@H](C)C(=O)N[C@@H](C)C(=O)N[C@@H](C)C(=O)N[C@@H](CCCCN)C(=O)N[C@H](C(=O)N[C@@H](C)C(=O)N[C@@H](C)C(=O)N[C@@H](C)C(=O)N[C@@H](C)C(=O)N[C@H](C)C(N)=O)[C@@H](C)O [Ac-aAXAAAKTAAAAa-NH2] | ++ (affinity greater than 1.0) | ++ (affinity greater than 1.0) | + (0.51 to 1.0) |
| CC(=O)N[C@H](Cc1ccc(O)cc1)C(=O)N[C@@H](C)C(=O)N[C@@H](C)C(=O)N[C@@H](CC1CCCCC1)C(=O)N[C@@H](C)C(=O)N[C@@H](C)C(=O)N[C@@H](C)C(=O)N[C@@H](C)C(=O)N[C@H](C(=O)N[C@@H](CC(C)C)C(=O)N[C@@H](CCCCN)C(=O)N[C@@H](C)C(=O)N[C@@H](C)C(=O)N[C@H](C)C(N)=O)[C@@H](C)O [Ac-yAAXAAAATLKAAa-NH2] | ++ (affinity greater than 1.0) | ++ (affinity greater than 1.0) | ++ (affinity greater than 1.0) |
| CC(=O)N[C@H](Cc1ccc(O)cc1)C(=O)N[C@@H](C)C(=O)N[C@@H](C)C(=O)N[C@@H](CC1CCCCC1)C(=O)N[C@@H](C)C(=O)N[C@@H](C)C(=O)N[C@@H](C)C(=O)N[C@@H](CCCCN)C(=O)N[C@H](C(=O)N[C@@H](C)C(=O)N[C@@H](C)C(=O)N[C@@H](C)C(=O)N[C@@H](C)C(=O)N[C@H](C)C(N)=O)[C@@H](C)O [Ac-yAAXAAAKTAAAAa-NH2] | ++ (affinity greater than 1.0) | ++ (affinity greater than 1.0) | ++ (affinity greater than 1.0) |
| C[C@H](NC(=O)[C@H](C)NC(=O)[C@H](CC1CCCCC1)NC(=O)[C@H](C)NC(=O)[C@@H](C)N)C(=O)N[C@@H](C)C(=O)N[C@@H](C)C(=O)N1C[C@H](O)C[C@H]1C(=O)N[C@@H](CCCCN)C(=O)N[C@@H](C)C(=O)N[C@@H](C)C(=O)N[C@@H](C)C(=O)N[C@H](C)C(N)=O [aAXAAAABKAAAa-NH2] (H-[dA]A[Cha]AAAA[Hyp]KAAA[dA]-NH2) | ++ (affinity greater than 1.0) | ++ (affinity greater than 1.0) | ++ (affinity greater than 1.0) |
| CC(C)C[C@H](NC(=O)[C@@H](NC(=O)[C@H](C)NC(=O)[C@H](C)NC(=O)[C@H](C)NC(=O)[C@H](C)NC(=O)[C@H](CC1CCCCC1)NC(=O)[C@H](C)NC(=O)[C@@H](C)N)[C@@H](C)O)C(=O)N[C@@H](CCCCN)C(=O)N[C@@H](C)C(=O)N[C@@H](C)C(=O)N[C@H](C)C(N)=O [aAXAAAATLKAAa-NH2] | ++ (affinity greater than 1.0) | ++ (affinity greater than 1.0) | ++ (affinity greater than 1.0) |
| C[C@H](NC(=O)[C@H](C)NC(=O)[C@H](C)NC(=O)[C@@H](NC(=O)[C@H](CCCCN)NC(=O)[C@H](C)NC(=O)[C@H](C)NC(=O)[C@H](C)NC(=O)[C@H](CC1CCCCC1)NC(=O)[C@H](C)NC(=O)[C@@H](C)N)[C@@H](C)O)C(=O)N[C@@H](C)C(=O)N[C@H](C)C(N)=O [aAXAAAKTAAAAa-NH2] | ++ (affinity greater than 1.0) | ++ (affinity greater than 1.0) | ++ (affinity greater than 1.0) |
| C[C@H](NC(=O)[C@H](C)NC(=O)[C@H](C)NC(=O)[C@@H](NC(=O)[C@H](CCCCN)NC(=O)[C@H](C)NC(=O)[C@H](C)NC(=O)[C@H](C)NC(=O)[C@H](CC1CCCCC1)NC(=O)[C@@H](C)N)[C@@H](C)O)C(=O)N[C@@H](C)C(=O)N[C@H](C)C(N)=O [aXAAAKTAAAAa-NH2] (H-[dA][Cha]AAAKTAAAA[dA]-NH2) | ++ (affinity greater than 1.0) | ++ (affinity greater than 1.0) | ++ (affinity greater than 1.0) |
| C[C@H](NC(=O)[C@H](N)Cc1ccc(O)cc1)C(=O)N[C@@H](C)C(=O)N[C@@H](CC1CCCCC1)C(=O)N[C@@H](C)C(=O)N[C@@H](C)C(=O)N[C@@H](C)C(=O)N[C@@H](C)C(=O)N1C[C@H](O)C[C@H]1C(=O)N[C@@H](CCCCN)C(=O)N[C@@H](C)C(=O)N[C@@H](C)C(=O)N[C@@H](C)C(=O)N[C@H](C)C(N)=O [yAAXAAAABKAAAa-NH2] (H-[dY]AA[Cha]AAAA[Hyp]KAAA[dA]-NH2) | ++ (affinity greater than 1.0) | ++ (affinity greater than 1.0) | ++ (affinity greater than 1.0) |
| C[C@H](NC(=O)[C@H](N)Cc1ccc(O)cc1)C(=O)N[C@@H](C)C(=O)N[C@@H](CC1CCCCC1)C(=O)N[C@@H](C)C(=O)N[C@@H](C)C(=O)N[C@@H](C)C(=O)N[C@@H](C)C(=O)N[C@H](C(=O)N[C@@H](CCCCN)C(=O)N[C@@H](C)C(=O)N[C@@H](C)C(=O)N[C@@H](C)C(=O)N[C@H](C)C(N)=O)[C@@H](C)O [yAAXAAAATKAAAa-NH2] (H-[dY]AA[Cha]AAAATKAAA[dA]-NH2) | ++ (affinity greater than 1.0) | ++ (affinity greater than 1.0) | ++ (affinity greater than 1.0) |
